Results from US4315935A, “N,N'-Bis[substituted-1,2,3,4-tetrahydroisoquinolinolyl]disulfonylimides and antiallergic compositions and method of use” (SmithKline Corporation, priority 1980, dated 1982).

System: SRS-A
Experiment: inhibition of SRS-A induced contraction of guinea pig ileum
Assay type: cell-based
Conditions: Cavia porcellus, 0.25 h; for inhibition at 5 µM: read-out: […], compound concentration 5 × 10^-6 M, SRS-A agonist 40 μg/ml, read-out: PERCENTAGE ANTAGONISM; for inhibition at 1 µM: read-out: […], compound concentration 1 × 10^-6 M, SRS-A agonist 40 μg/ml, read-out: PERCENTAGE ANTAGONISM
Description: The SRS-A antagonist activity of the compounds of this invention is measured by the ability of the active medicament to inhibit SRS-A induced contraction of guinea pig ileum. In this test system, sections of ileum are resected from guinea pigs and placed in 5 ml. tissue baths containing a modified Tyrode's solution. One end of the tissue is fixed to a glass tissue holder, the other is connected to a force-displacement transducer and the tissue is placed under a tension of 500 mg. Isometric tissue contractions are recorded on a six channel polygraph. Baths are constantly aerated with 95% O2 -5% CO2. After a 20 minute stabilization period a concentration of the appropriate agonist which provides a contraction height of 60-80% of the maximum obtainable to that agonist (as determined from full sequential concentration--response curves in separate experiments) is added to the tissue bath and the response recorded. The procedure is repeated until reproducible responses are obtained. For most agonists, two applications in rapid succession, followed 15 minutes later by a third, is sufficient to establish reproducibility. Experimental tissues are incubated with the selected concentration of the test compounds for 15 minutes. Experimental and control tissues are subjected to 5 bath changes during the incubation interval. Changes in bath fluid during the incubation period are helpful in insuring the reproducibility of tissue responses to the agonist. The same concentration of the agonist is reapplied in the presence of the test compound and the response registered and compared with controls. Percent inhibition produced by the test compound is calculated by substracting the mean percentage change in control tissue from the means percentage change in tissues exposed to the test compound. Additional compounds are then evaluated as long as the tissue remains reproducibly responsive to the agonist. Six tissues obtained from 6 animals are used simultaneously--3 controls and 3 experimental.
The compounds of this invention tested at concentrations of from 5×10^-5 M to 1×10^-6 M produce marked antagonism of partially purified slow reacting substance of anaphylaxis obtained from guinea pig lung. The agonist is employed at a concentration of 40 μg/ml. Representative of this effect, tabulated below are a number of the claimed compounds and percentage antagonism of SRS-A at various compound concentrations.

SMILES | inhibition at 5 µM [%] | inhibition at 1 µM [%]
O=S(=O)(Nc1cccc(Cl)c1)c1ccc2c(c1)CN(S(=O)(=O)NS(=O)(=O)N1CCc3ccc(S(=O)(=O)Nc4cccc(Cl)c4)cc3C1)CC2 [Compound 1, N,N'-bis[7-(3-chlorobenzeneaminosulfonyl)-1,2,3,4-tetrahydroisoquinolyl]disulfonylimide] | 67.5 | –
O=S(=O)(Nc1ccccc1)c1ccc2c(c1)CN(S(=O)(=O)NS(=O)(=O)N1CCc3ccc(S(=O)(=O)Nc4ccccc4)cc3C1)CC2 [Compound 2] | 42.3 | –
O=S(=O)(Nc1ccccc1Cl)c1ccc2c(c1)CN(S(=O)(=O)NS(=O)(=O)N1CCc3ccc(S(=O)(=O)Nc4ccccc4Cl)cc3C1)CC2 [Compound 3] | 24.8 | –
O=S(=O)(Nc1ccc(Cl)cc1)c1ccc2c(c1)CN(S(=O)(=O)NS(=O)(=O)N1CCc3ccc(S(=O)(=O)Nc4ccc(Cl)cc4)cc3C1)CC2 [Compound 4] | 51.2 | –
O=S(=O)(Nc1cccc(Br)c1)c1ccc2c(c1)CN(S(=O)(=O)NS(=O)(=O)N1CCc3ccc(S(=O)(=O)Nc4cccc(Br)c4)cc3C1)CC2 [Compound 5] | 68 | 54
O=S(=O)(Nc1ccc(Br)cc1)c1ccc2c(c1)CN(S(=O)(=O)NS(=O)(=O)N1CCc3ccc(S(=O)(=O)Nc4ccc(Br)cc4)cc3C1)CC2 [Compound 6] | 42.2 | –
O=S(=O)(Nc1cccc(C(F)(F)F)c1)c1ccc2c(c1)CN(S(=O)(=O)NS(=O)(=O)N1CCc3ccc(S(=O)(=O)Nc4cccc(C(F)(F)F)c4)cc3C1)CC2 [Compound 7] | 65 | –
O=S(=O)(Nc1ccc(C(F)(F)F)cc1)c1ccc2c(c1)CN(S(=O)(=O)NS(=O)(=O)N1CCc3ccc(S(=O)(=O)Nc4ccc(C(F)(F)F)cc4)cc3C1)CC2 [Compound 8] | 57 | 49
O=[N+]([O-])c1cccc(NS(=O)(=O)c2ccc3c(c2)CN(S(=O)(=O)NS(=O)(=O)N2CCc4ccc(S(=O)(=O)Nc5cccc([N+](=O)[O-])c5)cc4C2)CC3)c1 [Compound 9] | 36 | –
O=S(=O)(Nc1ccc(Cl)c(Cl)c1)c1ccc2c(c1)CN(S(=O)(=O)NS(=O)(=O)N1CCc3ccc(S(=O)(=O)Nc4ccc(Cl)c(Cl)c4)cc3C1)CC2 [Compound 11] | 56 | 49
O=S(=O)(Nc1ccc(Cl)c(C(F)(F)F)c1)c1ccc2c(c1)CN(S(=O)(=O)NS(=O)(=O)N1CCc3ccc(S(=O)(=O)Nc4ccc(Cl)c(C(F)(F)F)c4)cc3C1)CC2 [Compound 12] | 91.5 | 41
Cc1ccc(NS(=O)(=O)c2ccc3c(c2)CN(S(=O)(=O)NS(=O)(=O)N2CCc4ccc(S(=O)(=O)Nc5ccc(C)c(C)c5)cc4C2)CC3)cc1C [Compound 13] | 62 | –
Cc1ccc(NS(=O)(=O)c2ccc3c(c2)CN(S(=O)(=O)NS(=O)(=O)N2CCc4ccc(S(=O)(=O)Nc5ccc(C)c(Cl)c5)cc4C2)CC3)cc1Cl [Compound 14] | 84 | –
CN(c1ccc(Cl)cc1)S(=O)(=O)c1ccc2c(c1)CN(S(=O)(=O)NS(=O)(=O)N1CCc3ccc(S(=O)(=O)N(C)c4ccc(Cl)cc4)cc3C1)CC2 [Compound 15] | 57.3 | –
O=S(=O)(Nc1cccc(Cl)c1)c1c(Cl)ccc2c1CN(S(=O)(=O)NS(=O)(=O)N1CCc3ccc(Cl)c(S(=O)(=O)Nc4cccc(Cl)c4)c3C1)CC2 [Compound 23, N,N'-Bis[7-Chloro-8-(3-Chlorobenzeneaminosulfonyl)-1,2,3,4-Tetrahydroisoquinolyl]disulfonylimide] | 48 | –
O=S(=O)(Nc1cccc(Cl)c1)c1ccc(Cl)c2c1CCN(S(=O)(=O)NS(=O)(=O)N1CCc3c(S(=O)(=O)Nc4cccc(Cl)c4)ccc(Cl)c3C1)C2 [Compound 30, N,N'-bis[8-chloro-5-(3-chlorobenzeneaminosulfonyl)-1,2,3,4-tetrahydroisoquinolyl]disulfonylimide] | 63 | –
